Tests used:
[1] = test system: Arabidopsis thaliana MC24; test: Greenhouse dose response, post-emergence spray of untransformed motherline; assay type: in vivo; conditions: 9 leaf stage, rates from 0.8 to 100 g/ha, 14 days after treatment (FIG. 2)
[2] = test system: Transgenic MC24 plants expressing the Scenedesmus obliquus HPPD full length coding sequence (SEQ ID NO: 47); test: Greenhouse post-emergence herbicide tolerance test, transgenic lines expressing full length Scenedesmus obliquus HPPD (F363I); assay type: in vivo, Arabidopsis thaliana
Description: (§1) Additionally, T1 and T2 transgenic Arabidopsis plants can be tested for improved tolerance to HPPD-inhibiting benzamide herbicides in a greenhouse studies. Herbicide injury scoring is done 2-3 weeks after treatment and is rated on a scale of 0 to 100%, 0% being no injury and 100% being complete death.
(§2) The seedlings are then transfered to pots with a diameter of 10 cm and grown in soil to the nine leaf stage.
(§3) Preselected transgenic Arabidopsis plants expressing heterologous Scenedesmus obliquus HPPD mutant enzymes as defined in Seq ID No. 48 and Seq ID No. 50 are tested for tolerance against HPPD-inhibiting 4-bromo-3-(dicyclopropylcarbamoylamino)-6-fluoro-2-methyl-N(1-methyltetrazol-5-yl) benzamide herbicide in greenhouse experiments.
(§4) Transgenic lines are tested expressing heterologous Scenedesmus obliquus HPPD coding sequences under control of the constitutive parsley ubiquitin promoter and the nos terminator. One construct contains the full length Scenedesmus obliquus HPPD enzyme (Seq ID No. 47) while in a second construct the naturally occurring C-terminal insertion of 36 amino acids at position 442-477 is deleted (Seq ID No. 49). Both coding sequences carry the mutation F363I.
(§5) Broadleaf plants are more sensitive to HPPD inhibitors when applied post-emergence as compared to a pre-emergence testing. Therefore, transgenic lines are tested in a post emergence setting at about the nine leaf stage.
(§6) For the herbicide treatment of transgenic lines 4-bromo-3-(dicyclopropylcarbamoylamino)-6-fluoro-2-methyl-N-(1-methyltetrazol-5-yl) benzamide is applied at use rates of 25, 50 and 100 g/ha (see FIG. 3)
(§7) Treated plants are assessed 14 days after treatment (DAT) in the post-emergence setting.

[3] = test system: Transgenic MC24 plants expressing the short Scenedesmus obliquus HPPD (SEQ ID NO:50); test: Greenhouse post-emergence herbicide tolerance test, transgenic lines expressing short Scenedesmus obliquus HPPD (F363I, amino acids 442-477 deleted); assay type: in vivo, Arabidopsis thaliana
Description: as §1, §2, §3, §4, §5, §6, §7

SMILES: Cc1c(NC(=O)N(C2CC2)C2CC2)c(Br)cc(F)c1C(=O)Nc1nnnn1C [4-bromo-3-(dicyclopropylcarbamoylamino)-6-fluoro-2-methyl-N-(1-methyltetrazol-5-yl) benzamide]
- sensitivity of untransformed MC24 plants towards the herbicide (plant death) [1]: die even at the lowest rate
- herbicide tolerance of full length sequence compared to HPPD not containing the C-terminal loop ([2]; 25-100 g/ha, 14 days after treatment): slightly better herbicide tolerance
- herbicide tolerance of transgenic lines ([2]; full length S. obliquus HPPD F363I, 25-100 g/ha, post-emergence, 9 leaf stage, 14 DAT (FIG. 4)): show herbicide tolerance
- injury of plants with S. obliquus HPPD gene carrying F363I (overall assessment) ([2]; full length construct, shown rates 25, 50 and 100 g/ha, 14 days after treatment): very little to no injury
- herbicide tolerance of transgenic lines ([3]; short S. obliquus HPPD F363I, 25 to 100 g/ha, post-emergence, 9 leaf stage, 14 DAT (FIG. 3)): show herbicide tolerance
- herbicidal injury of transgenic lines ([3]; short S. obliquus HPPD F363I, 50 to 100 g/ha, post-emergence, 14 DAT (FIG. 3)): Little herbicidal injury
- injury of plants with S. obliquus HPPD gene carrying F363I (overall assessment) ([3]; short construct, shown rates 25, 50 and 100 g/ha, 14 days after treatment): very little to no injury
